Laboratory results taken from ChEMBL document CHEMBL1201862, “PubChem BioAssay data set” (2004).
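Method: 48-hour compound exposure of cells in 96-well plates, five concentrations, linear interpolation of endpoints. GI50 = concentration required for 50% inhibition of growth.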 Active and inactive are the calls of the source. No stated cut-off is given here; in the data, active = GI50 up to about 1.1 µM and inactive = higher.

How the values were obtained:
Test in all cases: NCI anticancer screen, dose series, 48 h
786-0 = tested on: 786-0
A498 = tested on: A498
ACHN = tested on: ACHN
HL-60 = tested on: HL-60
K562 = tested on: K562
KM12 = tested on: KM12
MOLT-4 = tested on: MOLT-4
NCI-H460 = tested on: NCI-H460
RXF 393 = tested on: RXF 393
SF-539 = tested on: SF-539
SK-MEL-5 = tested on: SK-MEL-5
SN12C = tested on: SN12C
SNB-19 = tested on: SNB-19
SNB-75 = tested on: SNB-75
U-251 = tested on: U-251
UACC-257 = tested on: UACC-257
UACC-62 = tested on: UACC-62
HOP-92 = tested on: HOP-92
NCI/ADR-RES = tested on: NCI/ADR-RES

Measured: GI50

CC(C)(C)c1cc(Cc2ccc(S(C)(=O)=O)cc2)c(O)c(C(C)(C)C)c1
inactive: 786-0 16.1 µM | A498 16.1 µM | ACHN 13.7 µM | HL-60 16.5 µM | K562 13.8 µM | KM12 16.4 µM | MOLT-4 12.3 µM | NCI-H460 16.8 µM | RXF 393 12.9 µM | SF-539 16.7 µM | SK-MEL-5 16.3 µM | SN12C 15.3 µM | SNB-19 15.5 µM | SNB-75 14.8 µM | U-251 15.1 µM | UACC-257 17 µM | UACC-62 13.1 µM

CCC1N2CCCCC2[C@@H]2c3[nH]c4ccccc4c3CCN12 (some centres undefined)
inactive: 786-0 > 100 µM | A498 > 100 µM | ACHN > 100 µM | HL-60 > 100 µM | HOP-92 > 100 µM | K562 > 100 µM | MOLT-4 > 100 µM | NCI-H460 > 100 µM | RXF 393 > 100 µM | SF-539 > 100 µM | SK-MEL-5 > 100 µM | SN12C > 100 µM | SNB-19 > 100 µM | SNB-75 77.8 µM | U-251 > 100 µM | UACC-257 > 100 µM | UACC-62 > 100 µM

N/C(=N\O)N/N=C/c1ccc2c(c1)OCCO2
inactive: A498 27.2 µM | HL-60 18.2 µM | HOP-92 27 µM | K562 7.85 µM | KM12 5.04 µM | MOLT-4 19.1 µM | NCI-H460 7.55 µM | NCI/ADR-RES 11.1 µM | RXF 393 27.9 µM | SF-539 17.1 µM | SK-MEL-5 7.21 µM | SN12C 29.6 µM | SNB-19 9.82 µM | SNB-75 29.9 µM | U-251 21.3 µM | UACC-257 18.6 µM

CCc1cccc(CC)c1NC1=CC(=O)C(=O)c2ccccc21
inactive: 786-0 18.9 µM | A498 22.3 µM | ACHN 13.1 µM | HL-60 > 100 µM | HOP-92 15.1 µM | K562 59.4 µM | KM12 15.4 µM | MOLT-4 45.7 µM | NCI-H460 19 µM | RXF 393 23.9 µM | SF-539 19.5 µM | SK-MEL-5 10 µM | SN12C 27.5 µM | SNB-19 23 µM | SNB-75 22.8 µM | U-251 15.3 µM | UACC-257 15 µM | UACC-62 14 µM

Cc1cccc(NC(=O)C(=O)C(C(=O)c2ccccc2F)C2OC(=O)c3ccccc32)c1Cl (centres undefined)
inactive: A498 60.7 µM | ACHN 53.1 µM | HL-60 20.1 µM | HOP-92 52.7 µM | K562 28.6 µM | KM12 25 µM | MOLT-4 30.3 µM | NCI-H460 33.7 µM | SF-539 18.2 µM | SK-MEL-5 64 µM | SN12C 36.7 µM | SNB-19 31.1 µM | SNB-75 20.5 µM | U-251 14.5 µM | UACC-257 51.4 µM | UACC-62 23.2 µM

CC1(c2ccc(F)cc2)C(C#N)C(=O)NC(=O)C1C#N (centres undefined)
inactive: 786-0 > 100 µM | A498 41.4 µM | ACHN > 100 µM | HL-60 > 100 µM | HOP-92 > 100 µM | K562 > 100 µM | KM12 > 100 µM | MOLT-4 > 100 µM | NCI-H460 > 100 µM | RXF 393 60.1 µM | SF-539 > 100 µM | SK-MEL-5 > 100 µM | SN12C > 100 µM | SNB-19 > 100 µM | SNB-75 32.3 µM | UACC-257 > 100 µM | UACC-62 > 100 µM

CC/C=C\C/C=C\C/C=C\CCCCCCCC(=O)OCC
inactive: 786-0 > 100 µM | A498 > 100 µM | ACHN > 100 µM | HL-60 > 100 µM | HOP-92 > 100 µM | K562 > 100 µM | KM12 > 100 µM | MOLT-4 87.1 µM | SF-539 > 100 µM | SK-MEL-5 > 100 µM | SN12C > 100 µM | SNB-75 > 100 µM | U-251 > 100 µM | UACC-257 > 100 µM | UACC-62 > 100 µM

CC(C)(C)OC(=O)N1CCC(NC(=O)NC2CCN(C(=O)OC(C)(C)C)CC2)CC1
inactive: 786-0 > 100 µM | A498 > 100 µM | ACHN > 100 µM | HL-60 > 100 µM | HOP-92 > 100 µM | KM12 > 100 µM | NCI-H460 > 100 µM | NCI/ADR-RES > 100 µM | SF-539 > 100 µM | SN12C > 100 µM | SNB-19 > 100 µM | SNB-75 > 100 µM | U-251 > 100 µM | UACC-257 > 100 µM | UACC-62 > 100 µM

CCOC(=O)C(C(=O)OCC)c1ccc([N+](=O)[O-])o1
inactive: 786-0 6.64 µM | A498 > 10 µM | ACHN 10.2 µM | HL-60 2.65 µM | HOP-92 6.62 µM | K562 3.43 µM | KM12 17.5 µM | MOLT-4 3.08 µM | NCI-H460 20.3 µM | RXF 393 12.4 µM | SF-539 19.9 µM | SK-MEL-5 17.3 µM | SN12C 18 µM | SNB-19 > 100 µM | SNB-75 20 µM | U-251 18.7 µM | UACC-257 14.7 µM | UACC-62 17.9 µM
